Earlier results on nine compounds are cited in article PMC6503469, “The Use of Molecular Descriptors To Model Pharmaceutical Uptake by a Fish Primary Gill Cell Culture Epithelium” (Environmental Science & Technology, 2018).

Where a name gives a salt, the structure may show the parent alone. Read-outs that look alike come from different tables or passages of the source.

The conditions of data set [1]: source not stated; for PSA: polar surface area; for pKa: molecular descriptor; for log D: octanol–water distribution coefficient at pH 7.4; for log Kow: octanol–water partition coefficient; for log S: molecular descriptor (solubility).
On the set-up of data set [2]: method as in PMID 28853873. Particulars: adult zebrafish.
Assay in data set [3]: not given
The source holds these as a separate data set.

On the set-up of data set [4]: method as in Chen et al 2017. Particulars: pH 7.6, after 6h exposure to 12.5 µg/L; ref Chen et al 2017.
Details of data set [5]: method as in Nallani et al 2012. The settings on record: pH 7.4, exposed to 83 µg/L for 7 days; ref Nallani et al 2012.

With `CC(=O)Nc1nnc(S(N)(=O)=O)s1` [acetazolamide], the PSA in data set [1] is listed as 115.04 Å^2.

Regarding `C[C@H]1C[C@H]2[C@@H]3CCC4=CC(=O)C=C[C@]4(C)[C@@]3(Cl)[C@@H](O)C[C@]2(C)[C@@]1(O)C(=O)CO` [beclomethasone], in data set [1], the pKa is 13.85, the log distribution coefficient (log D) is recorded as 4.16, the “log Kow” value is 3.49 and the PSA is 106.97 Å^2. The Plasma concentration (pH 7.4, 21 days exposure to 816 ng/L, dipropionate rapidly metabolized, combined values, ref Margiotta-Casaluci et al. 2016) is 60 ± 35 ng/mL.

Consider `NC(=O)N1c2ccccc2C=Cc2ccccc21` [carbamazepine], for which, in data set [1], the “log S” value is given as “–3.2”, the “log D” value is reported as 2.28, the “log Kow” value is 2.28 and the PSA is listed as 46.33 Å^2. Besides, the BCFss in data set [2] is listed as 1.41 ± 7.13 L kg^–1. The Plasma concentration in data set [3] (pH 7.7, after 10 days exposed to 43 µg/L, ref Lahti et al 2011) was 25 ng/mL.

On to `O=C(O)Cc1ccccc1Nc1c(Cl)cccc1Cl` [diclofenac, diclofenac sodium salt], for which, in data set [1], the “log S” value is reported as “–4.8”, the “log D” value was 1.22, the “log Kow” value is listed as 1.9 and the PSA is recorded as 52.16 Å^2. The Plasma concentration (pH 7.6, after 48h exposure to 24 µg/L, ref Bickley et al 2017) is on record as 205 ng/mL. Also, the Plasma concentration (pH 7.6, after 21 days exposed to 0.95 µg/L, ref Bickley et al 2017) was 26 ng/mL.

With `Cc1ccc(C)c(OCCCC(C)(C)C(=O)O)c1` [gemfibrozil], the Plasma concentration in data set [4] is 183 ng/mL. For the same compound, in data set [1], the “log S” value is given as “–4”, the pKa is 4.42, the “log D” value was 1.40 and the “log Kow” value is listed as 4.77. Besides, in data set [1], the PSA was 46.53 Å^2.

For `CC(C)Cc1ccc(C(C)C(=O)O)cc1` (centres unmarked) [ibuprofen, ibuprofen sodium salt], in data set [1], the “log S” value is on record as “–3.5”, the pH-dependent lipophilicity (log D) is 0.29, the “log Kow” value is 2.48 and the PSA is given as 40.10 Å^2. The Plasma concentration (pH 7.4, after 24h exposed to 107 µg/L, ref Patel et al 2016) was 550 ng/mL.

With `CC(C(=O)O)c1cccc(C(=O)c2ccccc2)c1` (centres unmarked) [ketoprofen], in data set [1], the log distribution coefficient (log D) is 0.06, the “log Kow” value is on record as 0.97 and the PSA is given as 54.37 Å^2. Also, the Plasma concentration in data set [3] (pH 7.4, after 14 days exposure to 91 µg/L, ref Cuklev et al 2012) is 1 ng/mL.

`C#C[C@]1(O)CC[C@H]2[C@@H]3CCC4=CC(=O)CC[C@@H]4[C@H]3CC[C@@]21C` [norethindrone, norethindrone-19]: in data set [1], the pKa was 17.59, the “log D” value is recorded as 2.98, the “log Kow” value is 3.15 and the PSA was 37.30 Å^2. For the same compound, in data set [5], the Plasma concentration was 950 ng/mL.

For `CC(=O)CC(c1ccccc1)c1c(O)c2ccccc2oc1=O` (centres unmarked) [warfarin], in data set [1], the “log S” value is recorded as “–3.8”, the pKa is 5.08 and the log distribution coefficient (log D) is given as 0.16.

As a reminder, the pKa is the negative logarithm of the acid dissociation constant. As usually defined, the log D is lipophilicity at a set pH, counting ionised and neutral species.
